{"source": "patent US20060089302A1", "about": "“Hsp70-derived peptides and uses thereof in the diagnosis and treatment of autoimmune diseases” (priority 2002, published 2006)", "key": {"[1]": {"tested_on": "peripheral blood mononuclear cells (PBMC) / T-cells", "test": "T-cell proliferation assay (3H-Thymidine incorporation, stimulation index)", "format": "cell-based, human", "conditions": "for T-cell reactivity to hsp70 peptide (epitope mapping): seven Type 1 Diabetes patients (P3, P16, P18, P20, P21, P23, P24), immunogenic when at least 3 out of 7 patients had S.I.≥2; for T-cell reactivity to hsp70 peptide (epitope mapping) / Number of Type 1 Diabetes subjects responding to the peptide: peptide 5-20 μg/ml; for Number of Type 1 Diabetes subjects responding to the peptide: epitope mapping, seven subjects tested (p1: three of these plus two adult patients), S.I.≥2; for T-cell proliferative response, S.I., Mean ± SD: group mean"}, "[2]": {"tested_on": "serum IgG anti-hsp60, anti-hsp70, anti-hsp90, anti-tetanus toxoid", "test": "Determination of auto-antibodies (antibody capture ELISA on antigen-coated plates)", "format": "binding, human", "conditions": "for IgG antibodies to the antigen in serum, Mean ± SD: group mean", "protocol": "All of the serum samples that were collected were stored in aliquotes at −20° C. and thawed before each assay. Total human IgG anti-hsp60, anti-hsp70, and anti-hsp90, as well as anti-tetanus toxoid proteins were detected by the antibody capture-type enzyme immunoassay ELISA [Maggio, M. T. (1981) Enzyme Immunoassay, CRC Press, Boca Raton, USA]. 96-well micro titer plates (Dynatech) were coated with the protein according to the antibody being tested. Serum samples were distributed at dilutions in the range of 1:50 to 1:70 into the pre-coated wells for the protein detection assay. Thus, any IgG anti-hsp60, anti-hsp70, anti-hsp90, or anti-tetanus toxoid present should be bound by the immobilized peptide or protein. After washing off unbound material, a mouse monoclonal anti-human IgG antibody conjugated to alkaline phosphatase (AP) was added to the wells. After an additional washing step to remove any unbound anti-enzyme reagent, the AP substrate p-nitrophenyl phosphate (pNPP) solution was added. The intensity of the color developed was measured using an Anthos htll ELISA reader at λ=405 nm. The amount of antibody detected was represented as Units of Optical Density at λ=405 nm. Patients and control subjects were assayed in the same experiment.\nThe InStat 2.01 computer program was used for the statistical analysis. The results obtained from the samples of healthy individuals were used to determine the cutoff for each assay, which was established as the mean plus two standard deviations (SDs). […] The results were presented as the percentage of positive from the total tested group.\nLevels of IgG antibodies to hsp60, hsp70, and hsp90 were measured in the sera of 20 Type 1 Diabetes children (P1-P5, P7-P21; Table 3A) and two control groups, 10 normoglycemic children (Table 3B) and 15 healthy adult blood donors (Table 3C). The level of the antibodies was scored as positive when it was greater than the cut-off level (cut-off levels were established based on the mean value of antibody levels from the normoglycemic children plus two standard deviations)."}, "[3]": {"conditions": "healthy subjects / healthy blood donors"}, "[4]": {"conditions": "Type 1 diabetes children (n=20), cut-off = mean of normoglycemic children plus two SD"}, "[5]": {"conditions": "healthy adult blood donors (n=15)"}, "[6]": {"conditions": "pediatric control serum donors / healthy children (n=10)"}}, "note": "Values joined by “and” are separate entries in the source; they are usually repeats but may differ in a detail not shown here. Equal entries are not always repeated."}
{"substance": "KANKITITNDKGRLSKEEIE (listed as Homo sapiens) [p34, human hsp70 residues 496-515]", "values": [{"measurement": "T-cell reactivity to hsp70 peptide (epitope mapping)", "setting": "[1]", "result": "triggered a T-cell response"}]}
{"substance": "KEEIERMVQEAEKYKAEDEV (listed as Homo sapiens) [p35, human hsp70 residues 511-530]", "values": [{"measurement": "Number of Type 1 Diabetes subjects responding to the peptide", "setting": "[1]", "result": "five"}, {"measurement": "T-cell reactivity to hsp70 peptide (epitope mapping)", "setting": "[1]", "result": "triggered a T-cell response"}]}
{"substance": "KRTLSSSTQASLEIDSLFEG (listed as Homo sapiens) [p19, human hsp70 residues 271-290]", "values": [{"measurement": "T-cell reactivity to hsp70 peptide (epitope mapping)", "setting": "[1]", "result": "triggered a T-cell response"}]}
{"substance": "LLLLDVAPLSLGLETAGGVM (listed as Homo sapiens) [p27, human hsp70 residues 391-410]", "values": [{"measurement": "Number of Type 1 Diabetes subjects responding to the peptide", "setting": "[1]", "result": "six out of seven"}, {"measurement": "T-cell reactivity to hsp70 peptide (epitope mapping)", "setting": "[1]", "result": "triggered a T-cell response"}]}
{"substance": "MAKAAAVGIDLGTTYSCVGV (listed as Homo sapiens) [p1, human hsp70 residues 1-20]", "values": [{"measurement": "Number of Type 1 Diabetes subjects responding to the peptide", "setting": "[1]", "result": "five"}, {"measurement": "T-cell reactivity to hsp70 peptide (epitope mapping)", "setting": "[1]", "result": "triggered a T-cell response"}]}
{"substance": "PTKQTQIFTTYSDNQPGVLI (listed as Homo sapiens) [p29, human hsp70 residues 421-440]", "values": [{"measurement": "T-cell reactivity to hsp70 peptide (epitope mapping)", "setting": "[1]", "result": "triggered a T-cell response"}]}
{"substance": "THLGGEDFDNRLVNHFVEEF (listed as Homo sapiens) [p16, human hsp70 residues 225-244]", "values": [{"measurement": "T-cell reactivity to hsp70 peptide (epitope mapping)", "setting": "[1]", "result": "triggered a T-cell response"}]}
{"substance": "TIDDGIFEVKATAGDTHLGG (listed as Homo sapiens) [p15, human hsp70 residues 210-229]", "values": [{"measurement": "T-cell reactivity to hsp70 peptide (epitope mapping)", "setting": "[1]", "result": "triggered a T-cell response"}]}
{"substance": "Tetanus Toxoid: recall antigen Tetanus Toxoid (Connaught Lab. Inc, Penn., USA) [reference compound]", "values": [{"measurement": "T-cell proliferative response, S.I., Mean ± SD", "setting": "[1]; Healthy subjects", "result": "8.01 ± 9.3"}, {"measurement": "T-cell proliferative response, S.I., Mean ± SD", "setting": "[1]; Healthy subjects, listed as tetanus toxoid", "result": "9.4±6.4"}, {"measurement": "T-cell proliferative response, S.I., Mean ± SD", "setting": "[1]; Type 1 Diabetes adult patients", "result": "14.3 ± 22.86"}, {"measurement": "T-cell proliferative response, S.I., Mean ± SD", "setting": "[1]; Type 1 Diabetes children", "result": "17.2±16.1"}, {"measurement": "T-cell proliferative response, S.I., Mean ± SD", "setting": "[1]; Type 1 Diabetes children, listed as T.T.", "result": "17.2 ± 15.9"}, {"measurement": "T-cell proliferative response, S.I., Mean ± SD", "setting": "[1]; Type 2 Diabetes patients", "result": 4.4}, {"measurement": "T-cell proliferative response, S.I., Mean ± SD", "setting": "[1]; Type 2 Diabetes patients, listed as tetanus toxoid", "result": "4.4±2.9"}, {"measurement": "Serum antibodies to control antigen, in words", "setting": "[2]; Type 1 Diabetes and control groups", "result": "comparably high"}]}
{"substance": "hsp70: recombinant human hsp70 (StressGen, Canada), intact heat-shock protein", "values": [{"measurement": "T-cell proliferative response, S.I., Mean ± SD", "setting": "[1]; Healthy subjects", "result": "1.4±0.6 and 1.45±0.6 and 1.44 ± 0.6"}, {"measurement": "T-cell proliferative response, S.I., Mean ± SD", "setting": "[1]; Type 1 Diabetes adult patients", "result": "2.6+0.84 and 2.6 ± 0.84"}, {"measurement": "Responding subjects (S.I.≥2)", "setting": "[1]; Type 1 Diabetes adult patients, within 12 weeks from diagnosis", "result": "about 86%"}, {"measurement": "Responding subjects (S.I.≥2)", "setting": "[1]; Type 1 Diabetes children", "result": 85, "unit": "%"}, {"measurement": "Responding subjects (S.I.≥2)", "setting": "[1]; Type 2 Diabetes patients", "result": 27, "unit": "%"}, {"measurement": "T-cell proliferative response, S.I., Mean ± SD", "setting": "[1]; Type 2 Diabetes patients", "result": "1.8±1.3 and 1.8 ± 1.26"}, {"measurement": "Responding subjects (S.I.≥2)", "setting": "[1]; [3]", "result": "14% and 13%"}, {"measurement": "IgG antibodies to the antigen in serum, Mean ± SD", "setting": "[2]; Type 1 Diabetes children", "result": "0.5 ± 0.41 Units of Optical Density at λ=405 nm"}, {"measurement": "Positive (antibody level above cut-off)", "setting": "[2]; [4]", "result": 30, "unit": "%"}, {"measurement": "Positive (antibody level above cut-off)", "setting": "[2]; Type 1 diabetes children (n=20), cut-off = mean of normoglycemic children plus two SD, listed as Hsp70", "result": 30, "unit": "%"}, {"measurement": "Positive (antibody level above cut-off)", "setting": "[2]; [5]", "result": 6, "unit": "%"}, {"measurement": "Positive (antibody level above cut-off)", "setting": "[2]; healthy adult blood donors (n=15), listed as Hsp70", "result": 6.6, "unit": "%"}, {"measurement": "IgG antibodies to the antigen in serum, Mean ± SD", "setting": "[2]; healthy adult blood donors", "result": "0.43 ± 0.1 Units of Optical Density at λ=405 nm"}, {"measurement": "Positive (antibody level above cut-off)", "setting": "[2]; [6]", "result": "none"}, {"measurement": "Positive (antibody level above cut-off)", "setting": "[2]; pediatric control serum donors / healthy children (n=10), listed as Hsp70", "result": 0, "unit": "%"}, {"measurement": "IgG antibodies to the antigen in serum, Mean ± SD", "setting": "[2]; pediatric control serum donors", "result": "0.35 ± 0.09 Units of Optical Density at λ=405 nm"}]}
{"substance": "hsp90: recombinant human hsp90 (StressGen, Canada), heat-shock protein", "values": [{"measurement": "T-cell proliferative response, S.I., Mean ± SD", "setting": "[1]; Healthy subjects", "result": "1.52±0.7"}, {"measurement": "T-cell response, in words", "setting": "[1]; Type 1 Diabetes adult patients (Table 1D), tested after more than 12 weeks", "result": "No response"}, {"measurement": "T-cell proliferative response, S.I., Mean ± SD", "setting": "[1]; Type 1 Diabetes adult patients", "result": "1.4 ± 0.3"}, {"measurement": "Responding subjects (S.I.≥2)", "setting": "[1]; Type 1 Diabetes children", "result": 21, "unit": "%"}, {"measurement": "T-cell proliferative response, S.I., Mean ± SD", "setting": "[1]; Type 1 Diabetes children", "result": "1.7±1.2 and 1.7 ± 1.1"}, {"measurement": "Responding subjects (S.I.≥2)", "setting": "[1]; Type 2 Diabetes patients", "result": 9, "unit": "%"}, {"measurement": "T-cell proliferative response, S.I., Mean ± SD", "setting": "[1]; Type 2 Diabetes patients", "result": "1.6±1.4 and 1.6 ± 1.38"}, {"measurement": "Responding subjects (S.I.≥2)", "setting": "[1]; [3]", "result": 25, "unit": "%"}, {"measurement": "IgG antibodies to the antigen in serum, Mean ± SD", "setting": "[2]; Type 1 Diabetes children", "result": "0.47 ± 0.13 Units of Optical Density at λ=405 nm"}, {"measurement": "Positive (antibody level above cut-off)", "setting": "[2]; [4]", "result": 15, "unit": "%"}, {"measurement": "Positive (antibody level above cut-off)", "setting": "[2]; Type 1 diabetes children (n=20), cut-off = mean of normoglycemic children plus two SD, listed as Hsp90", "result": 15, "unit": "%"}, {"measurement": "Positive (antibody level above cut-off)", "setting": "[2]; [5]", "result": 6, "unit": "%"}, {"measurement": "Positive (antibody level above cut-off)", "setting": "[2]; healthy adult blood donors (n=15), listed as Hsp90", "result": 6.6, "unit": "%"}, {"measurement": "IgG antibodies to the antigen in serum, Mean ± SD", "setting": "[2]; healthy adult blood donors", "result": "0.46 ± 0.1 Units of Optical Density at λ=405 nm"}, {"measurement": "Positive (antibody level above cut-off)", "setting": "[2]; [6]", "result": "none"}, {"measurement": "Positive (antibody level above cut-off)", "setting": "[2]; pediatric control serum donors / healthy children (n=10), listed as Hsp90", "result": 0, "unit": "%"}, {"measurement": "IgG antibodies to the antigen in serum, Mean ± SD", "setting": "[2]; pediatric control serum donors", "result": "0.43 ± 0.1 Units of Optical Density at λ=405 nm"}]}
